In test [1] the target is exon 20 T790M mutant-type EGFR enzyme (Homo sapiens, UniProt P00533, T790M). Kind of test: Enzymologic experiment of T790M mutant-type EGFR (TR-FRET). The test is classed as biochemical. Particulars: for IC50: T790M EGFR enzyme, TR-FRET, ATP 1 to 10 uM; for Selectivity of wild-type/mutant-type: ratio WT IC50 / T790M IC50, enzyme. A digest of the protocol:
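Compound dilutions preincubated 10 min at room temperature; reaction ended with EDTA, then labeled antibody added for 1 h at room temperature. Inhibition rates derived from TR-FRET fluorescence signal, and IC50 obtained by curve fitting across concentrations.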
Background: In TR-FRET formats the signal depends on donor and acceptor labels being close together.

In another test the target is wild-type EGFR enzyme (Homo sapiens, UniProt P00533). Put plainly: Enzymologic experiment of wild-type (WT) EGFR (TR-FRET). The test is classed as biochemical. To be noted: ATP 0.1 to 5 uM. A digest of the protocol:
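Wild-type EGFR (0.1 to 1 nM final) preincubated with serially diluted compound for 10 minutes at room temperature; reaction stopped with EDTA, then labelled antibody added for 1 hour at room temperature. TR-FRET signal converted to inhibition rates; IC50 from curve fitting across concentrations.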

Another test has as its system NCI-H1975 cells. Put plainly: Inhibition of NCI-H1975 cell proliferation (CellTiter-Glo). The test is classed as cell-based. To be noted: for IC50: NCI-H1975 cell proliferation, 72 hours, CellTiter-Glo, read-out: EGFR IC50 (nM) H1975; for Selectivity of wild-type/mutant-type: ratio A431 IC50 / H1975 IC50, cells.
The next test relates to A431 cells. Put plainly: Inhibition of A431 cell proliferation (CellTiter-Glo). The test is classed as cell-based. To be noted: read-out: EGFR IC50 (nM) A431. A digest of the protocol:
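Viability read as CellTiter-Glo luminescence; IC50 by curve fitting of inhibition rates.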

Among the data in patent US10428081B2, “EGFR inhibitor, preparation method and use thereof” (Shanghai Hansoh Biomedical Co., Ltd., priority 2014, dated 2019) are IC50 and Selectivity of wild-type/mutant-type values, retold here.

Like-named read-outs stand apart in the source and are kept apart here.

exon 20 T790M mutant-type EGFR enzyme, sequence (P00533 25-1210 T790M): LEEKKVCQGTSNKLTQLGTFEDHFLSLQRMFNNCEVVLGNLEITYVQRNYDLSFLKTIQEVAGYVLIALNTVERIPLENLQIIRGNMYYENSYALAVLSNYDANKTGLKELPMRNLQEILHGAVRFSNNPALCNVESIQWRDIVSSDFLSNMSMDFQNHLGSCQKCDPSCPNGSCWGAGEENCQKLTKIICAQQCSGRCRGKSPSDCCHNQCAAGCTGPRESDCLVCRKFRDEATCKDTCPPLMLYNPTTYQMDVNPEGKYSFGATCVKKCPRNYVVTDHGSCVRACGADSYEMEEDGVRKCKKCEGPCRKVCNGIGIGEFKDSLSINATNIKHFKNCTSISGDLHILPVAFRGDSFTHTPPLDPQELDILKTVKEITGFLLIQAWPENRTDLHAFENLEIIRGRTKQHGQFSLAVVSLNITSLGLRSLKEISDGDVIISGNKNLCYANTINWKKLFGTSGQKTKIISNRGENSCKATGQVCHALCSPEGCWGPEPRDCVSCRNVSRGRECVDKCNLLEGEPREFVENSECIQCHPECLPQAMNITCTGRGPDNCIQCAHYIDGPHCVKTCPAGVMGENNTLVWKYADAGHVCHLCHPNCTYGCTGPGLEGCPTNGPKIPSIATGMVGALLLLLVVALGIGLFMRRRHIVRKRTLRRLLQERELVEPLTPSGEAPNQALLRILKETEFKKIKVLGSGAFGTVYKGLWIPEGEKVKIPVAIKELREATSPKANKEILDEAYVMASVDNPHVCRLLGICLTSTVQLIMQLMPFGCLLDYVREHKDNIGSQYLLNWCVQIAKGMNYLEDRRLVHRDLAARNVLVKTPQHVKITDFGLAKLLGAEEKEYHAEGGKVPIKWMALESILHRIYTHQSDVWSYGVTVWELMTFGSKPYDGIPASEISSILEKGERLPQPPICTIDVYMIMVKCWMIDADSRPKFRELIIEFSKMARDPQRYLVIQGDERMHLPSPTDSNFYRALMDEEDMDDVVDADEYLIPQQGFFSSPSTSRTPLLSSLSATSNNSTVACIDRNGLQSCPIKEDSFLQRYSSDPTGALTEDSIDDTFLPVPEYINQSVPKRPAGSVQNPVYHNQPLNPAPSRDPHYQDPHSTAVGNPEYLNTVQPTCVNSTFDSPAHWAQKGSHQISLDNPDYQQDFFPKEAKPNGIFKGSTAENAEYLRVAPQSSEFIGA
wild-type EGFR enzyme, sequence (P00533 25-1210): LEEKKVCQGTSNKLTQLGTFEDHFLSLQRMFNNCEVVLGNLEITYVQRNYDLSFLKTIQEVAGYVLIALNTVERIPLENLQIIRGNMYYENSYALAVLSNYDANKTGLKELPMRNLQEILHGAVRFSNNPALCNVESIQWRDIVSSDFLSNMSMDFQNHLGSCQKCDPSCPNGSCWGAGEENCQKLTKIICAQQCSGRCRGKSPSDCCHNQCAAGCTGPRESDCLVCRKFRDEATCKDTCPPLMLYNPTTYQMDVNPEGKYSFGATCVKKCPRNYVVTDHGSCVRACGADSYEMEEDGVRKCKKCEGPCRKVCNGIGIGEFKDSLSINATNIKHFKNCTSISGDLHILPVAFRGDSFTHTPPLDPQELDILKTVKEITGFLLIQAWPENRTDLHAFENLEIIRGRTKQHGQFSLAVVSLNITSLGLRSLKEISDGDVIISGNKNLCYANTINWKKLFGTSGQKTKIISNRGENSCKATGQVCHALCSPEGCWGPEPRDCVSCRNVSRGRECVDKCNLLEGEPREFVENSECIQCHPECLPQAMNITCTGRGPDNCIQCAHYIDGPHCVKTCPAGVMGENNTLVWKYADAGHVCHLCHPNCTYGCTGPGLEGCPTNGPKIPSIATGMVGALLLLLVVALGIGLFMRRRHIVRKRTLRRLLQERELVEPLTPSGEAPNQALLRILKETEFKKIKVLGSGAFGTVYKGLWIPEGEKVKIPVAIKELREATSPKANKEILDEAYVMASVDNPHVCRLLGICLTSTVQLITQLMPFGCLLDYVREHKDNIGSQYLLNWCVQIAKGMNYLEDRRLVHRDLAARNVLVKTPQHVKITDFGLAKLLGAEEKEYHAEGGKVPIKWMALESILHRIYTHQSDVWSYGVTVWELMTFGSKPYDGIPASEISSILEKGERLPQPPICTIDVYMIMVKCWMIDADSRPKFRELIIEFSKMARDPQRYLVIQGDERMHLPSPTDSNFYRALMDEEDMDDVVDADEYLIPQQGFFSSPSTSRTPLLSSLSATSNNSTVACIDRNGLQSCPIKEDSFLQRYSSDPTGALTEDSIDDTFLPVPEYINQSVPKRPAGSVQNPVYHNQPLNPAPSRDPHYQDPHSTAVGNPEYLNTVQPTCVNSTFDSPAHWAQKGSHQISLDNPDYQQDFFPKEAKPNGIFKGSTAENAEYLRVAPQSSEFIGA

The IC50 is the concentration that inhibits the measured activity by half. For `C=CC(=O)Nc1cc(Nc2ncc(C(F)(F)F)c(-n3nc(C)c4cc(C#N)ccc43)n2)c(OC)cc1N(C)CCN(C)C` [Example 106, N-(5-((4-(5-cyano-3-methyl-1H-indazol-1-yl)-5-(trifluoromethyl)pyrimidin-2-yl)amino)-2-((2-(dimethylamino)ethyl)(methyl)amino)-4-methoxyphenyl)acrylamide], the IC50 in test [1] came out at 0.88 nM; at wild-type EGFR enzyme, 190 nM; in the test on NCI-H1975 cells (Homo sapiens, NCI-H1975, 72 h), 14.3 nM; with A431 cells (Homo sapiens, A-431, 72 h) it was 354 nM. Also, the Selectivity of wild-type/mutant-type worked out at 216.14 in test [1] and 24.70 in the test with NCI-H1975 cells.

Consider `C=CC(=O)Nc1cc(Nc2nccc(-c3cn(C)c4ccc(F)c(F)c34)n2)c(OC)cc1N(C)CCN(C)C` [Example 90, N-(5-((4-(4,5-difluoro-1-methyl-1H-indol-3-yl)pyrimidin-2-yl)amino)-2-((2-(dimethylamino)ethyl)(methyl)amino)-4-methoxyphenyl)acrylamide], for which the 50% inhibitory concentration (IC50) in test [1] came to 1.14 nM; against wild-type EGFR enzyme, 4.91 nM; in the test on NCI-H1975 cells (Homo sapiens, NCI-H1975, 72 h), 6.32 nM; in the test on A431 cells (Homo sapiens, A-431, 72 h), 106 nM. Also, the Selectivity of wild-type/mutant-type in test [1] amounted to 4.31; in the test on NCI-H1975 cells, 16.72.

Take `C=CC(=O)Nc1cc(Nc2nccc(-n3nc(C)c4cc(OC)c(OC)cc43)n2)c(OC)cc1N(C)CCN(C)C` [Example 53, N-(5-((4-(5,6-dimethoxy-3-methyl-1H-indazol-1-yl)pyrimidin-2-yl)amino)-2-((2-(dimethylamino)ethyl)(methyl)amino)-4-methoxyphenyl)acrylamide]: the IC50 in test [1] was determined as 2.53 nM; at wild-type EGFR enzyme, 34.1 nM; in the test on NCI-H1975 cells (Homo sapiens, NCI-H1975, 72 h), 20 nM; in the test on A431 cells (Homo sapiens, A-431, 72 h) it was 628 nM. Besides, the Selectivity of wild-type/mutant-type stood at 13.50 in test [1] and 31.38 in the test with NCI-H1975 cells.

As to `C=CC(=O)Nc1cc(Nc2nccc(-n3nc(C4CC4)c4ccccc43)n2)c(OC)cc1N(C)CCN(C)C` [Example 111, N-(5-((4-(3-cyclopropyl-1H-indazol-1-yl)pyrimidin-2-yl)amino)-2-((2-(dimethylamino)ethyl)(methyl)amino)-4-methoxyphenyl)acrylamide], the IC50 in test [1] was 0.42 nM; at wild-type EGFR enzyme, 2.77 nM; in the test with NCI-H1975 cells it was 5.65 nM; in the test with A431 cells (72 hours), 314 nM. Also, the Selectivity of wild-type/mutant-type in test [1] worked out at 6.60; in the test with NCI-H1975 cells, 55.52.

With `C=CC(=O)Nc1cc(Nc2nccc(-n3cnc4cc(OC)ccc43)n2)c(OC)cc1N(C)CCN1CCCC1` [Example 138, N-(4-methoxy-5-((4-(5-methoxy-1H-benzo[d]imidazol-1-yl)pyrimidin-2-yl)amino)-2-(methyl(2-(pyrrolidin-1-yl)ethyl)amino)phenyl)acrylamide], the IC50 worked out at 0.5 nM in test [1]; 4.92 nM against wild-type EGFR enzyme; 3.37 nM in the test with NCI-H1975 cells (Homo sapiens, NCI-H1975, 72 h); 408 nM in the test with A431 cells (Homo sapiens, A-431, 72 h). Besides, the Selectivity of wild-type/mutant-type turned out to be 9.84 in test [1] and 121.22 in the test on NCI-H1975 cells.

As for `C=CC(=O)Nc1cc(Nc2nccc(-c3c[nH]c4c(OC)cccc34)n2)c(OC)cc1N(C)CCN(C)C` [Example 94, N-(2-((2-(dimethylamino)ethyl)(methyl)amino)-4-methoxy-5-((4-(7-methoxy-1H-indol-3-yl)pyrimidin-2-yl)amino)phenyl)acrylamide], the IC50 in test [1] was 0.71 nM; at wild-type EGFR enzyme, 1.26 nM; with NCI-H1975 cells (Homo sapiens, NCI-H1975, 72 h), 3.91 nM; in the test on A431 cells (Homo sapiens, A-431, 72 h), 38.8 nM. Further, the results for the Selectivity of wild-type/mutant-type (in test [1]; with NCI-H1975 cells) were 1.771 and 9.93, respectively.
